Where “and” joins values, the source holds several entries; their conditions need not be identical. Identical values can stand only once. Like-named read-outs stand apart in the source and are kept apart here. Each block holds one compound with its values, some of them ahead of it.
Experiments:
[1] = molecular target: T1, CHRM1 (Homo sapiens, UniProt P11229); experiment: NanoBRET screen HiBiT-CHRM1 in HEK293; format: binding
T1 construct: purchased Promega (in-house HiBiT-GPCR construct library, NanoBRET)
T1 sequence (P11229 1-460): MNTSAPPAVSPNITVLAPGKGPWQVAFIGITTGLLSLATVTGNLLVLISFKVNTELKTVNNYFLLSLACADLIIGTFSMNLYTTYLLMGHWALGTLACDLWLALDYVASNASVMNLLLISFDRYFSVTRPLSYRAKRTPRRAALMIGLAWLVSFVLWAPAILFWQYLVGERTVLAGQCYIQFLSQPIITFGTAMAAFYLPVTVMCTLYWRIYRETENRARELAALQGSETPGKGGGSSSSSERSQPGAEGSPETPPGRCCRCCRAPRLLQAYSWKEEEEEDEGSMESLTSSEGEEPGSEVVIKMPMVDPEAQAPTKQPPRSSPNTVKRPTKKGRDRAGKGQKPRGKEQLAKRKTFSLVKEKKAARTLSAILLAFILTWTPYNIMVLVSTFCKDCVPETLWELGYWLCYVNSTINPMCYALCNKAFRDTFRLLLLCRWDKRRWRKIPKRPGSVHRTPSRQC

[2] = molecular target: T2, HRH1 (Homo sapiens, UniProt P35367); experiment: NanoBRET screen HiBiT-HRH1 in HEK293; format: binding
T2 construct: purchased Promega (in-house HiBiT-GPCR construct library, NanoBRET)

[3] = test system: 184 HiBiT-GPCRs from 51 families; experiment: NanoBRET screen, binding profile across the HiBiT-GPCR library; parameters: species or system human; details: screen at 1 μM and 0.1 μM tracer
Procedure: Each tracer candidate was screened across the entire library of HiBiT-GPCR constructs using NanoBRET as the detection modality. As depicted in Figure 4A, the specificity of interactions was evaluated through decrease in BRET due to competitive displacement of a bound tracer by excess parental compound. Each tracer was analyzed for binding to each HiBiT-GPCR fusion in the absence and in the presence of competing parental compound. Briefly, HEK293 cells were transfected with HiBiT-GPCR constructs diluted into promoterless DNA to reduce expression and maximize translocation to the cell surface. Each tracer candidate was then screened at concentrations of 1 μM and 0.1 μM across cells expressing these fusions. Cells were treated for 1.5 h with tracer either alone or in the presence of 20 μM competing parental compound (i.e., control). BRET was measured upon addition of purified LgBiT and subsequent complementation with HiBiT genetically fused to a GPCR. The specificity of interactions was assessed through a decrease in BRET signal due to competitive displacement of the bound tracer. To further gauge the robustness of these interactions, the fold response over the control (i.e., BRETtracer/BRETcontrol) was calculated. We chose a 1.5-fold response, which translates to ≥7-fold signal over noise as the minimal threshold required to score an interaction as positive. […]. […]

T2 sequence (P35367 whole entry): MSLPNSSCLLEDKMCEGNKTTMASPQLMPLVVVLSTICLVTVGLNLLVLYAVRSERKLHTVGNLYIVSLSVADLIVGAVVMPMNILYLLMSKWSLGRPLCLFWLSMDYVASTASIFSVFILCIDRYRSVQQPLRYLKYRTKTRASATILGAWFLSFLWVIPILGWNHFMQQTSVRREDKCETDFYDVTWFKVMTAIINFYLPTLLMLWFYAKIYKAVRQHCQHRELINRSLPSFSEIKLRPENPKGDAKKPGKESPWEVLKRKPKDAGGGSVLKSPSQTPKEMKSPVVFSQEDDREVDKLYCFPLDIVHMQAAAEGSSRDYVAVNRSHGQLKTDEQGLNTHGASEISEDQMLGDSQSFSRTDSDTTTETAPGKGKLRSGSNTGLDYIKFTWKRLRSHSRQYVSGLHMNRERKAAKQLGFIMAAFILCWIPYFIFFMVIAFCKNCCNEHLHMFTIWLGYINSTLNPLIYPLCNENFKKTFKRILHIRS

- NanoBRET Fold Response ([1]; CHRM1, 0.1μM): 1.01
- NanoBRET Fold Response ([1]; CHRM1, 1μM): 1.04
- NanoBRET Fold Response ([2]; HRH1, 0.1μM): 1.05
- NanoBRET Fold Response ([2]; HRH1, 1μM): 0.92
Structure (SMILES): CCOC(=O)c1cc(C#N)c(N2CCC(C(=O)NS(=O)(=O)Cc3ccccc3/C=C/C(=O)NCCNC(=O)CCc3ccc4n3[B-](F)(F)[N+]3=C(c5ccc[nH]5)C=CC3=C4)CC2)nc1C [AZD1283-1-NB590]

- NanoBRET Fold Response ([1]; CHRM1, tracer 0.1μM): 0.98
- NanoBRET Fold Response ([1]; CHRM1, tracer 1μM): 1.35
- NanoBRET Fold Response ([2]; HRH1, tracer 0.1μM): 0.91
- NanoBRET Fold Response ([2]; HRH1, tracer 1μM): 1.08
Structure (SMILES): N#CN=C(NCCCOc1cccc(CN2CCCCC2)c1)NCCNC(=O)CCOCCOCCOCCOCCNC(=O)CCc1ccc2n1[B-](F)(F)[N+]1=C(c3ccc[nH]3)C=CC1=C2 [Aminopotentidine-2-NB590]

Structure (SMILES): CN(CCC=C1c2ccccc2CCc2ccccc21)C(=O)CCOCCOCCOCCOCCNC(=O)CCc1ccc2n1[B-](F)(F)[N+]1=C(c3ccc[nH]3)C=CC1=C2 [Amitriptyline-e-2-NB590]
- Number of GPCRs with specific interactions (≥[…] response) [3]: no specific interactions

- NanoBRET Fold Response ([1]; 0.1μM tracer): 1.17
- NanoBRET Fold Response ([1]; 1μM tracer): 0.93
- NanoBRET Fold Response ([2]; 0.1μM tracer): 1.14
- NanoBRET Fold Response ([2]; 1μM tracer): 1.14
Structure (SMILES): COc1ccc2c(n1)c(CCNC(C)=O)cn2CCNC(=O)CCc1ccc2n1[B-](F)(F)[N+]1=C(c3ccc[nH]3)C=CC1=C2 [Azamelatonin-1-NB590]

- NanoBRET Fold Response ([1]; 0.1μM tracer): 1.20
- NanoBRET Fold Response ([1]; 1μM tracer): 0.97
- NanoBRET Fold Response ([2]; 0.1μM tracer): 0.94
- NanoBRET Fold Response ([2]; 1μM tracer): 0.89
Structure (SMILES): COc1ccc2[nH]c(-c3ccc(CNC(=O)CCOCCOCCOCCOCCNC(=O)CCc4ccc5n4[B-](F)(F)[N+]4=C(c6ccc[nH]6)C=CC4=C5)cc3)c(CCNC(C)=O)c2n1 [AzomelatoninICO9-2-NB590]

- NanoBRET Fold Response ([1]; CHRM1, 0.1μM tracer): 1.09
- NanoBRET Fold Response ([1]; CHRM1, 1μM tracer): 0.98
- NanoBRET Fold Response ([2]; HRH1, 0.1μM tracer): 4.67
- NanoBRET Fold Response ([2]; HRH1, 1μM tracer): 4.78
Structure (SMILES): O=C(CCOCCOCCOCCOCCNC(=O)CCc1ccc2n1[B-](F)(F)[N+]1=C(c3ccc[nH]3)C=CC1=C2)NCCCN1CCN(C2=Nc3cc(Cl)ccc3Nc3ccccc32)CC1 [Clozapine-a-2-NB590]

Structure (SMILES): O=C(CCOCCOCCOCCOCCNC(=O)CCc1ccc2n1[B-](F)(F)[N+]1=C(c3ccc[nH]3)C=CC1=C2)NCCCN1CCN(C2=Nc3ccccc3Oc3ccc(Cl)cc32)CC1 [Loxapine-a-2-NB590]
- NanoBRET Fold Response [1]: 0.90 and 1.14
- NanoBRET Fold Response [2]: 3.64 and 4.76

Structure (SMILES): COc1ccccc1N1CCN(CCCCN2C(=O)c3ccc(CNC(=O)CCOCCOCCOCCOCCNC(=O)CCc4ccc5n4[B-](F)(F)[N+]4=C(c6ccc[nH]6)C=CC4=C5)cc3C2=O)CC1 [NAN-190-2-NB590]
- NanoBRET Fold Response [1]: 1.02
- NanoBRET Fold Response ([1]; CHRM1, tracer 1μM): 1.16
- NanoBRET Fold Response ([2]; HRH1, tracer 0.1μM): 2.49
- NanoBRET Fold Response ([2]; HRH1, tracer 1μM): 2.31

Structure (SMILES): COc1ccccc1N1CCN(CCCCN2C(=O)c3ccc(CNC(=O)CCOCCNC(=O)c4ccc(CNC(=O)CCc5ccc6n5[B-](F)(F)[N+]5=C(c7ccc[nH]7)C=CC5=C6)cc4)cc3C2=O)CC1 [NAN-190-3-NB590]
- NanoBRET Fold Response ([1]; CHRM1, tracer 0.1μM): 0.89
- NanoBRET Fold Response ([1]; CHRM1, tracer 1μM): 0.92
- NanoBRET Fold Response ([2]; HRH1, tracer 0.1μM): 2.18
- NanoBRET Fold Response ([2]; HRH1, tracer 1μM): 1.84

Structure (SMILES): CC(C)N(CC[C@H](c1ccccc1)c1cc(CCNC(=O)CCOCCOCCOCCOCCNC(=O)CCc2ccc3n2[B-](F)(F)[N+]2=C(c4ccc[nH]4)C=CC2=C3)ccc1O)C(C)C [Tolterodine-2-NB590]
- NanoBRET Fold Response [1]: 1.59 and 2.16
- NanoBRET Fold Response ([2]; HRH1, tracer 0.1μM): 1.08
- NanoBRET Fold Response ([2]; HRH1, tracer 1μM): 1.58

Structure (SMILES): CC(C)N(CC[C@H](c1ccccc1)c1cc(CCNC(=O)c2ccc(CNC(=O)CCc3ccc4n3[B-](F)(F)[N+]3=C(c5ccc[nH]5)C=CC3=C4)cc2)ccc1O)C(C)C [Tolterodine-BZ-NB590]
- NanoBRET Fold Response [1]: 2.14 and 2.47
- NanoBRET Fold Response ([2]; HRH1, tracer 0.1μM): 0.99
- NanoBRET Fold Response ([2]; HRH1, tracer 1μM): 1.10

Structure (SMILES): CCCn1c(=O)c2[nH]c(-c3ccc(OCC(=O)NCCNC(=O)CCOCCNC(=O)c4ccc(CNC(=O)CCc5ccc6n5[B-](F)(F)[N+]5=C(c7ccc[nH]7)C=CC5=C6)cc4)cc3)nc2n(CCC)c1=O [XAC-3-NB590]
- NanoBRET Fold Response ([1]; CHRM1, tracer 0.1μM): 1.11
- NanoBRET Fold Response ([1]; CHRM1, tracer 1μM): 0.99
- NanoBRET Fold Response ([2]; HRH1, tracer 0.1μM): 0.95
- NanoBRET Fold Response ([2]; HRH1, tracer 1μM): 1.24

— article PMC8151276, “An Integrated Approach toward NanoBRET Tracers for Analysis of GPCR Ligand Engagement” (Molecules, 2021)
